Test results reported in patent US8754038B2, “Template-fixed peptidomimetics with CCR10 antagonistic activity” (priority 2009, dated 2014).
Numbered stars: 1 amine (or outer) side, 2 acyl side, 3 side chain; on linkers, the order of the positions; unused ones are H or OH. Square brackets hold non-standard residues; d marks the D form. Side chains are listed from the residue outwards. Peptide text beside a SMILES is read from it. * marks the point of attachment. Pro(4R-OPh) = O=C(O)[C@@H]1C[C@@H](Oc2ccccc2)CN1; Phe(4-CN) = N#Cc1ccc(C[C@H](N)C(=O)O)cc1; Hyp = O=C(O)[C@@H]1C[C@@H](O)CN1; Benzyl(4-Br) = Brc1ccc(C*)cc1; Ac5c = NC1(C(=O)O)CCCC1; Dab = NCC[C@H](N)C(=O)O; X10 = N#Cc1ccc(C*)cc1; X14 = N#Cc1cccc(C*)c1; CO = O=C([*:1])[*:2]; NHPh = c1ccc(N*)cc1

How the values were obtained:
[1] = target: T1, human CCR10 (Homo sapiens, UniProt P46092); assay: Calcium flux assay (CCR10 antagonism, CCL27 as agonist); assay type: cell-based; settings: CCR10 transfected 300-19 murine pre-B cells; CCL27 30 nM
T1 construct: expressed in transfected cells
T1 sequence (P46092 1-362): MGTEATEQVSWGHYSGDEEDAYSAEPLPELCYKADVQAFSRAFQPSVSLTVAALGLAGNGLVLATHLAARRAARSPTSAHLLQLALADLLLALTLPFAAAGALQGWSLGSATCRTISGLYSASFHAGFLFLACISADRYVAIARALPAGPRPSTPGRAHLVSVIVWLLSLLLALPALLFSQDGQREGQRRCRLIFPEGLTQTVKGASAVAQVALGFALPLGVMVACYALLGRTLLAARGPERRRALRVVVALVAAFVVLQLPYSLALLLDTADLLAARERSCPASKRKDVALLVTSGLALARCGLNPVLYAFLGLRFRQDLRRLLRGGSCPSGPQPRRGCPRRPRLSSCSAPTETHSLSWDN
Experimental: (§1) Lyophilized peptides were weighed on a Microbalance (Mettler MX5) and dissolved in aqueous 90% DMSO to a final concentration of 10 mM unless otherwise stated. Stock solutions were kept at +4° C., and protected from light.
(§2) Peptides were assayed for CCR10 antagonism in a calcium flux assay and in a chemotaxis assay using a mouse pre-B cell line 300-19 stably transfected with human CCR10, and with human CCL27 as agonist.
The calcium flux release was assessed using CCR10 transfected 300-19 murine pre-B cells. These cells were labeled as a batch with Calcium4 Reagent (Molecular Devices, Sunnyvale, Calif.) in HBSS buffer for 60 min.
After dispensing 8×10^4 cells in each well of a 384-well black plate, a concentrated solution of the β-hairpin peptidomimetics of this invention in HBSS+0.1% BSA+0.1% DMSO (final concentration) was added to the cells. The entire plate was centrifuged and placed in a Flexstation II (Molecular Devices) automated plate reader. After reading a 20 s baseline, the Flexstation dispensed CCL27 (RnD systems) at a final concentration of 30 nM in HBSS+0.1% BSA onto the cells and calcium flux was measured for an additional 70 s.
Alternatively a FIipR384 (Molecular Devices) was used for read out of the 384-well plates. In this case about 8×10^4 cells were placed in each well, centrifuged, placed in the FlipR and after 5 s of baseline reading, the β-hairpin peptidomimetics in HBSS+0.1% BSA+0.1% DMSO (final concentration) were added. After an incubation time of 5 min, the CCL27 solution was added to the mixture and the calcium flux was measured for 200 s.
The maximum signal was determined from control wells without inhibitor. Percentage of inhibition was calculated from a range of compound concentrations, which were subsequently used to calculate IC50 values (Softmax Pro, Molecular Devices). All steps were carried out at room temperature.

[2] = target: T1, human CCR10; assay: Chemotaxis assay (CCR10-transfected 300-19 cells, CCL27 gradient); assay type: cell-based; settings: CCR10-transfected 300-19 murine pre-B cells; 30 nM CCL27 gradient
Experimental: as §1, §2
The chemotactic response of CCR10-transfected 300-19 murine pre-B cells to a gradient of CCL27 (CTACK) was measured using disposable Transwell® assay plates from Costar (5 μm pore size) according to the protocol of the manufacturer. Briefly, cells were grown under sterile conditions at 37° C. with 5% CO2 in flasks containing RPMI+5% FCS, glutamine, penicillin/streptomycin (all media components were from Life Technologies) and the appropriate selection antibiotics (Puromycin, G418 or Tetracycline). For the assay, cells were pelleted by centrifugation, washed once in Dulbecco's phosphate buffered saline (DPBS), and resuspended to give 1×10^6 cells/ml in RPMI+0.5% bovine serum albumin (BSA). 100 μl of cell suspension was applied to the top of the assay filter. The β-hairpin peptidomimetics, diluted in the same assay medium, were added to both top and bottom chambers. The cells were allowed to migrate for 4-6 hours at 37° C. into the bottom chamber of the assay plate containing 30 nM of CCL27 (RnD systems). Migrated cells were counted using a FACS cytometer (Cytomics FC500, Beckman Coulter). Data normalization was performed using the number of any cells that had migrated in the absence of the β-hairpin peptidomimetic and the number of cells that have randomly migrated in absence of CCL27 [these values were taken as 100% (no inhibitory activity) and 0%, respectively]. From a range of compound concentrations IC50 were determined using Prism5 (GraphPad software).

Row | IC50 [1] [nM] | IC50 [2] [nM] | Structure (SMILES)
1 | 42 ± 25.1 | 37 | NCC[C@@H]1NC(=O)[C@H](Cc2c[nH]c3ccccc23)NC(=O)C2(CCCC2)NC(=O)[C@H](Cc2c[nH]c3ccccc23)NC(=O)[C@@H]2C[C@@H](Oc3ccccc3)CN2C(=O)[C@H]2CCCN2C1=O [compound 52, cyclo(-Trp-Cyp-Trp-Dab-^DPro-Hyp(Ph)-)] (cyclo([Ac5c]W[Dab][dP][Pro(4R-OPh)]W))
2 | 48.9 ± 40 | 143 | N#Cc1ccc(CO[C@@H]2C[C@H]3C(=O)N[C@@H](Cc4c[nH]c5ccccc45)C(=O)NC4(CCCC4)C(=O)N[C@@H](Cc4c[nH]c5ccccc45)C(=O)N[C@@H](CCN)C(=O)N4CCC[C@@H]4C(=O)N3C2)cc1 [compound 53, cyclo(-Trp-Cyp-Trp-Dab-^DPro-Hyp(4CNBn)-)] (cyclo([Ac5c]W[Dab][dP][Hyp](X10)W))
3 | 5.3 ± 3.9 | 0.6 | N#Cc1ccc(C[C@@H]2NC(=O)[C@@H]3C[C@@H](OCc4ccc(Br)cc4)CN3C(=O)[C@H]3CCCN3C(=O)[C@H](CO)NC(=O)[C@H](Cc3c[nH]c4ccccc34)NC(=O)C3(CCCC3)NC2=O)cc1 [compound 55, cyclo(-Phe(4CN)-Cyp-Trp-Ser-^DPro-Hyp(4BrBn)-)] (cyclo([Ac5c]WS[dP][Hyp](Benzyl(4-Br))[Phe(4-CN)]))
4 | 11.6 ± 9.2 | 2.5 | NCC[C@@H]1NC(=O)[C@H](Cc2c[nH]c3ccccc23)NC(=O)C2(CCCC2)NC(=O)[C@H](Cc2c[nH]c3ccccc23)NC(=O)[C@@H]2C[C@@H](OCc3ccc(Br)cc3)CN2C(=O)[C@H]2CCCN2C1=O [compound 56, cyclo(-Trp-Cyp-Trp-Dab-^DPro-Hyp(4BrBn)-)] (cyclo([Ac5c]W[Dab][dP][Hyp](Benzyl(4-Br))W))
5 | 127 ± 73 | 50.7 | N#Cc1cccc(CO[C@@H]2C[C@H]3C(=O)N[C@@H](Cc4c[nH]c5ccccc45)C(=O)NC4(CCCC4)C(=O)N[C@@H](Cc4c[nH]c5ccccc45)C(=O)N[C@@H](CCN)C(=O)N4CCC[C@@H]4C(=O)N3C2)c1 [compound 77, cyclo(-Trp-Cyp-Trp-Dab-^DPro-Hyp(3CNBn)-)] (cyclo([Ac5c]W[Dab][dP][Hyp](X14)W))

Row | Structure (SMILES) | IC50 [1] [nM] | IC50 [2] [nM]
6 | NCC[C@@H]1NC(=O)[C@H](Cc2c[nH]c3ccccc23)NC(=O)C2(CCCC2)NC(=O)[C@H](Cc2c[nH]c3ccccc23)NC(=O)[C@@H]2C[C@@H](OC(=O)Nc3ccccc3)CN2C(=O)[C@H]2CCCN2C1=O [compound 57, cyclo(-Trp-Cyp-Trp-Dab-^DPro-Hyp(CONHPh)-)] (cyclo([Ac5c]W[Dab][dP][Hyp]([CO-NHPh])W)) | 150 ± 110 | 183
